Experimental data from ChEMBL document CHEMBL1201862, “PubChem BioAssay data set” (2004).
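All cell lines were grown in 96-well plates and treated with compound for 48 hours. GI50 is the concentration that inhibits growth by half.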 Active and inactive are the calls of the source. Rule as the data show it: active = GI50 up to about 1.1 µM and inactive = higher.

Tests used:
Assay in all cases: DTP human tumour cell line panel, 48 h
[1] = test system: SNB-75
[2] = test system: A549
[3] = test system: SK-MEL-28
[4] = test system: HL-60
[5] = test system: NCI-H460
[6] = test system: OVCAR-3
[7] = test system: HT-29
[8] = test system: SF-539
[9] = test system: NCI-H23
[10] = test system: HCT-15
[11] = test system: MCF7
[12] = test system: SK-OV-3
[13] = test system: SF-268
[14] = test system: Malme-3M
[15] = test system: LOX IMVI
[16] = test system: SF-295
[17] = test system: NCI/ADR-RES
[18] = test system: TK-10
[19] = test system: OVCAR-4
[20] = test system: CCRF-CEM
[21] = test system: HOP-92
[22] = test system: 786-0
[23] = test system: HOP-62
[24] = test system: T47D
[25] = test system: RXF 393
[26] = test system: MDA-N
[27] = test system: NCI-H226
[28] = test system: ACHN
[29] = test system: MDA-MB-435
[30] = test system: PC-3
[31] = test system: SN12C
[32] = test system: Hs-578T
[33] = test system: KM12
[34] = test system: SK-MEL-5
[35] = test system: MOLT-4
[36] = test system: HCT-116
[37] = test system: U-251
[38] = test system: OVCAR-8
[39] = test system: SR
[40] = test system: A498
[41] = test system: HCC 2998
[42] = test system: M14
[43] = test system: EKVX
[44] = test system: CAKI-1
[45] = test system: K562
[46] = test system: SNB-19
[47] = test system: NCI-H522
[48] = test system: UACC-62
[49] = test system: MDA-MB-231
[50] = test system: OVCAR-5
[51] = test system: UACC-257
[52] = test system: COLO 205
[53] = test system: SW-620
[54] = test system: DU-145
[55] = test system: RPMI-8226
[56] = test system: IGROV-1
[57] = test system: UO-31
[58] = test system: BT-549

Measured: GI50

CCOC(=O)c1sc2c(c1OC(=O)c1ccc(OC)cc1)c(=O)n(-c1ccccc1)c(=S)n2-c1ccccc1
> 100 µM: [10]
inactive: [1] > 100 µM | [2] > 100 µM | [3] > 100 µM | [4] > 100 µM | [5] 94.6 µM | [6] > 100 µM | [7] > 100 µM | [8] 77.8 µM | [9] > 100 µM | [11] > 100 µM | [12] > 100 µM | [13] > 100 µM | [14] 61.7 µM | [15] > 100 µM | [16] > 100 µM | [17] 21.8 µM | [18] > 100 µM | [19] 10.2 µM | [20] > 100 µM | [21] 20.9 µM | [22] 35.5 µM | [23] 54 µM | [24] > 100 µM | [25] > 100 µM | [26] > 100 µM | [27] 24.9 µM | [28] > 100 µM | [29] > 100 µM | [30] > 100 µM | [31] 75.7 µM | [32] > 100 µM | [33] > 100 µM | [34] 27.6 µM | [35] > 100 µM | [36] 20.7 µM | [37] > 100 µM | [38] > 100 µM | [39] 36.5 µM | [40] 17.1 µM | [41] 16.3 µM | [42] > 100 µM | [43] > 100 µM | [44] > 100 µM | [45] > 100 µM | [46] > 100 µM | [47] 1.41 µM | [48] > 100 µM | [49] 16.4 µM | [50] > 100 µM | [51] > 100 µM | [52] > 100 µM | [53] > 100 µM | [54] > 100 µM | [55] > 100 µM | [56] > 100 µM

O=C(OCC(Cl)(Cl)Cl)O[C@@H]1CCCC1(c1ccccc1)c1ccccc1
inactive: [1] > 100 µM | [2] 65.3 µM | [3] 78.7 µM | [5] 71 µM | [7] > 100 µM | [9] 68.1 µM | [11] 55.1 µM | [12] > 100 µM | [13] > 100 µM | [15] 76.7 µM | [16] > 100 µM | [17] > 100 µM | [18] > 100 µM | [19] > 100 µM | [20] > 100 µM | [22] > 100 µM | [23] > 100 µM | [24] 72.1 µM | [25] 63.2 µM | [26] 72.4 µM | [27] 37.5 µM | [28] > 100 µM | [29] 24.2 µM | [30] 37.5 µM | [31] > 100 µM | [33] 45.3 µM | [34] 35.9 µM | [35] 6.81 µM | [36] 44.8 µM | [37] > 100 µM | [57] > 100 µM | [39] 12.6 µM | [41] 45.4 µM | [42] > 100 µM | [43] > 100 µM | [44] > 100 µM | [45] 30.8 µM | [46] > 100 µM | [47] 38.7 µM | [48] > 100 µM | [49] > 100 µM | [50] > 100 µM | [51] 67.8 µM | [52] > 100 µM | [53] > 100 µM | [54] > 100 µM | [58] > 100 µM | [56] > 100 µM
77.4 µM: [10]

COc1cc(CC2CC(c3ccc4c(c3)OCO4)OC2=O)cc(OC)c1OC (stereo not drawn)
inactive: [1] > 100 µM | [2] > 100 µM | [3] > 100 µM | [4] > 100 µM | [5] > 100 µM | [6] 49.5 µM | [7] > 100 µM | [8] > 100 µM | [9] > 100 µM | [11] > 100 µM | [12] > 100 µM | [13] > 100 µM | [14] 61.1 µM | [15] > 100 µM | [16] > 100 µM | [17] 83.2 µM | [18] > 100 µM | [20] > 100 µM | [21] 13.6 µM | [22] > 100 µM | [23] > 100 µM | [24] 39 µM | [25] > 100 µM | [27] > 100 µM | [28] > 100 µM | [29] > 100 µM | [30] 91.6 µM | [31] > 100 µM | [32] > 100 µM | [33] > 100 µM | [34] 43.9 µM | [35] 83 µM | [36] > 100 µM | [37] > 100 µM | [57] 19.4 µM | [38] > 100 µM | [39] > 100 µM | [40] > 100 µM | [41] > 100 µM | [42] > 100 µM | [43] 65.9 µM | [44] 59.2 µM | [45] 71.8 µM | [46] > 100 µM | [48] 52.5 µM | [49] 52.1 µM | [50] > 100 µM | [51] 77.4 µM | [52] > 100 µM | [53] > 100 µM | [54] > 100 µM | [55] 25.1 µM
> 100 µM: [10]
